Results from US20040141995A1, “MHC class I-restricted and MHC class II-restricted EBNA1 peptides” (priority 2002, published 2004).
Where two headings read alike, the source gives them in different places.

Tests used:
Assay type in all cases: cell-based, human
[1] = system: M3-W1-B9 CD8+ T cell recognition of HEK293/B8/EBNA1-GFP, LCL111 and 1359mel/EBNA1-GFP target cells; assay: Effect of inhibitors on M3W1-B9 CD8+ T cell recognition of EBNA1-expressing target cells (IFN-γ release); conditions: for dose dependence of inhibition of M3-W1-B9 CD8+ T cell recognition of HEK293/B8/EBNA1-GFP target cells: different concentrations of protease inhibitors (FIG. 14C); for effect on M3W1-B9 CD8+ T cell recognition of HEK293 transfected with HLA-B8 plus EBNA1-GFP: target cells treated with inhibitor, co-cultured with T cells overnight, IFN-γ release
Procedure: (§1) HEK 293 cells co-transfected with EBNA1-GFP were treated with various concentrations of ZAL inhibitor for 10 h. After washing, cells were incubated with T cells overnight for IFN-γ release assays. Various dilutions of DMSO were used as controls. T cell activity in the absence of inhibitor was used as 100% activity.
(§2) HLA-B8 expressing HEK293/EBNA1-GFP target cells were treated with an emetine inhibitor at three concentrations for 1h. After three washings, cells were co-cultured with M3-W1-B9 CD8^+ T cells overnight for IFN-γ release assays. […] HLA-B8 positive 1359 cells with the EBNA1-P518-526 peptide after the treatment of 1359mel cells were pulsed with 3 different concentration of emetine. FIG. 13B illustrates the determination of the sensitivity of recognition of TRP2-specific CD8 T cells to the treatment with emetine. 1363mel cells were treated with 3 different concentrations of emetine. After 3 washes, the cells were co-cultured with TRP2-specific CD8 ^+ T cells. The treated cells pulsed with a TRP2 peptide were used to examine the effect of emetine on recognition of MHC class I/TRP2 complexes on the cell surface; and
(§3) Target cells were incubated with various protease inhibitors for 2 h, washed and co-cultured with CD8^+ T cells overnight for IFN-γ release assays. Solvents used to solubilize inhibitors were also used as controls. […] Target cells were treated with different concentrations of protease inhibitors. After washes, the treated cells were co-cultured with M3-W1-B9 CD8^+ T cells overnight for IFN-γ release assays.
Target cells were incubated in the absence or presence of various concentrations of inhibitors for different period of time, depending on the type of inhibitors used. The cells were then washed and counted and co-cultured with T cells overnight for IFN-γ release assays. The solvents used to dissolve the inhibitors, such as DMSO, methanol and ethanol were also used as controls.
(§4) HEK293 cells were transfected with EBNA1-GFP and HLA-B8 cDNAs, and then treated them with different concentrations of ZAL and lactacystin, specific inhibitors of proteasomes. […] To exclude the potential nonspecific effect of ZAL on T cell recognition, the effects of ZAL inhibitor were tested on melanoma-reactive TIL102-CD4^+ T cells, which recognize a MHC class II-restricted epitope on the cell surface of 102mel tumor cells, and of P3-B7 CD4^+ T cells, which recognize HLA-DP3 expressing HEK293 cells transfected with Ii-EBNA1 as target cells. […] The effects of lactacystin, another specific proteasome inhibitor, were also tested on T cell recognition.
HLA-B8 expressing HEK293/EBNA1-GFP cells were treated with different concentrations of irreversible (emetine) and reversible (puromycin and cycloheximide) protein synthesis inhibitors for 1 h. After washing to remove inhibitors, the treated cells were co-cultured with antigen-specific CD8^+ T cells. […] Since blocking protein synthesis should rapidly decrease the peptide supply required for the export of MHC class I molecules from the ER to the cell surface as well as synthesis of MHC class I molecules, the treatment of cells with emetine would decrease the overall antigen presentation by MHC class I molecules.

[2] = system: 1359mel-specific CD8+ T cell recognition of 1359mel cells
Procedure: as §3
To test whether TPCK or AEBSF affected T cell recognition of other antigens, 1359mel were treated with the same concentrations of TPCK or AEBSF as described in FIG. 14A. […] AEBSF is an irreversible, specific inhibitor of serine proteases, while TPCK is an irreversible inhibitor of chymotrypsin and many other serine and cysteine proteases.

[3] = system: P3-B7 CD4+ T cell recognition of HEK293/DP3/Ii-EBNA1 target cells; assay: Effect of inhibitors on P3-B7 CD4+ T cell recognition of EBNA1 target cells; conditions: Homo sapiens, CD4+ T cell; 1 μM emetine; read-out: inhibition of EBNA1-specific P3-B7 CD4+ T cell recognition
Procedure: as §1, §4
HLA-B8 positive 1359mel cells were pulsed with the EBNA1-P518-526 peptide after the cells were treated with different concentrations of emetine and washed. […] 1363mel cells (TRP2^+ and HLA-A2^+) were treated with different concentrations of emetine, and then tested for their ability to stimulate TRP2-specific CD8^+ T cells. […]

[4] = system: TRP2-specific CD8+ T cell recognition of 1363mel cells; assay: Effect of emetine on recognition of 1363mel cells by TRP2-specific CD8+ T cells
Procedure: as §2
HLA-B8 positive 1359mel cells were pulsed with the EBNA1-P518-526 peptide after the cells were treated with different concentrations of emetine and washed. […] 1363mel cells (TRP2^+ and HLA-A2^+) were treated with different concentrations of emetine, and then tested for their ability to stimulate TRP2-specific CD8^+ T cells. […] However, there was only 30% inhibition of T cell recognition at 1 μM emetine treatment compared with over 90% inhibition of EBNA1-specific CD8^+ T cells at the same concentration of emetine (FIG. 13A). […] On the other hand, the processing and presentation of the TRP2 and CD4^+ T cell EBNA1 epitopes are less dependent on the production of short-lived DRiPs.

| SMILES | dose dependence of inhibition of M3-W1-B9 CD8+ T cell recognition of HEK293/B8/EBNA1-GFP target cells [1] | effect on M3W1-B9 CD8+ T cell recognition of HEK293 transfected with HLA-B8 plus EBNA1-GFP ([1]; washed) | inhibition of recognition of 1359mel cells by 1359mel-specific CD8+ T cells ([2]; same inhibitor concentrations as FIG. 14A) | inhibition of recognition of 1359mel cells by 1359mel-specific CD8+ T cells [2] | inhibition of M3W1-B9 CD8+ T cell recognition of HLA-B8 expressing HEK293/EBNA1-GFP target cells ([1]; 5 μM inhibitor for 1 h) | inhibition at 1 µM ([1]; Homo sapiens, T-cell, 1 h, 1 μM inhibitor for 1 h, read-out: inhibition of M3W1-B9 CD8+ T cell recognition of HLA-B8 expressing HEK293/EBNA1-GFP target cells) | effect on T cell recognition of 1359mel cells pulsed with EBNA1-P518-526 peptide after inhibitor treatment ([1]; different concentrations of emetine, washed, then peptide-pulsed) | inhibition at 1 µM [3] | effect on T cell recognition of TRP2 peptide-pulsed target cells after inhibitor treatment [4] | inhibition at 1 µM ([4]; Homo sapiens, T-cell, 1 μM emetine, read-out: inhibition of recognition of 1363mel target cells by TRP2-specific CD8+ T cells) | concentration dependence of inhibition of recognition of 1363mel target cells by TRP2-specific CD8+ T cells ([4]; different concentrations of emetine) |
| --- | --- | --- | --- | --- | --- | --- | --- | --- | --- | --- | --- |
| NCCc1ccc(S(=O)(=O)F)cc1 [AEBSF] | in a dose-dependent manner | significantly blocked | No inhibition | – | – | – | – | – | – | – | – |
| Cc1ccc(S(=O)(=O)N[C@@H](Cc2ccccc2)C(=O)CCl)cc1 [TPCK] | in a dose-dependent manner | significantly blocked | – | No inhibition | – | – | – | – | – | – | – |
| CC[C@H]1CN2CCc3cc(OC)c(OC)cc3[C@@H]2C[C@@H]1C[C@H]1NCCc2cc(OC)c(OC)cc21 [emetine] | – | – | – | – | completely inhibited | 94% | slightly inhibited | 20% | slightly inhibited | 30% | increased with the increasing concentrations |
